Test: Relaxometry of the particles (Bruker Minispec MQ60 NMR analyser, 1.4 T)
Assay type: physicochemical
Conditions: at 50 MHz; gadolinium quantities measured by ICP
Experimental: The relaxivity r1 considered here is a relaxivity per M^n+ ion (for example gadolinium). r1 is found from the following formula: 1/T1=[1/T1]water+r1[M^n+] […]
Moreover, the relaxivity of the particles from Example 15 was measured by relaxometry, the actual quantities of gadolinium being measured by ICP, on a Varian 710-ES instrument.

## O=C([O-])CN1CCN(CC(=O)[O-])CCN(CC(=O)[O-])CCN(CC(=O)[O-])CC1.[Gd+3] [Gd-DOTA]
  relaxivity r1 (of the gadolinium species): 3.8 s^−1 mM^−1 (of gadolinium)^−1.s^−1

Reference: US12533426B2, “Ultrafine nanoparticles comprising a functionalized polyorganosiloxane matrix and including metal complexes; method for obtaining same and uses thereof in medical imaging and/or therapy” (NANOH, priority 2010, dated 2026)
